From patent US20230116080A1, “METHOD FOR CONTROLLING THE GROWTH OF UNDESIRABLE VEGETATION” (UPL Limited, priority 2021, published 2023)

Test system: weedy Eleusine indica
Assay: Post-emergence herbicidal efficacy of L-glufosinate, other herbicides and their combinations in greenhouse trials (observed control vs Colby expected)
Assay type: in vivo
Conditions: for Control %: Table 1
Procedure: Evaluation of Post-Emergence Herbicidal Activity of Composition Under […]
Greenhouse trials were carried out to evaluate the efficacy of the combination of L-glufosinate and the other herbicides on weedy Eleusine indica.
The soil used was sandy clay loam—Sand: 68.0%; Silt: 8.0%; Clay: 24.0%.
All treatments were in 3 replications per treatment with a spray volume of […].
The expected efficacy of a combination of L-glufosinate and the other herbicides was calculated using the well-established Colby method. Any difference between the observed and “expected” efficacy could be attributed to synergy between the two compounds.
In the Colby method, the expected (or predicted) response of a combination of herbicides is calculated by taking the product of the observed response for each individual component of the combination when applied alone, divided by 100, and subtracting this value from the sum of the observed response for each component when applied alone. An unexpected enhancement in efficacy of the combination is then determined by comparing the observed response of the combination to the expected (or predicted) response as calculated from the observed response of each individual component alone. If the observed response of the combination is greater than the expected (or predicted) response, or stated conversely, if the difference between the observed and expected response is greater than zero, then the combination is said to be synergistic or unexpectedly effective (Colby, S. R., Weeds, 1967(15), p. 20-22). The Colby method requires only a single dose of each herbicide applied alone and the mixture of both doses. The formula used to calculate the expected efficacy (EE) which was compared with the observed efficacy (OE) to determine the efficacy of the present invention is explained herein below:
The expected efficacy for a combination of two active ingredients is as follows:
The expected efficacy for a combination of three active ingredients is as follows:
The percentage efficacy was calculated after 7, 14, 21, 28, 35 days of applications (DAA). The target weed was weedy Eleusine indica, and the concentration of the herbicide and the results are recorded in the table 1 below:
The percentage efficacy was calculated after 7 and 35 days of application (DAA). The target weed was weedy Eleusine indica, and the concentration of the herbicide and the results are recorded in the table 2 below:
The percentage efficacy was calculated after 3, 7, 14, 21, 28, 35 days of application (DAA). The target weed was weedy Eleusine indica, and the concentration of the herbicide and the results are recorded in the table 3 below:
The target weed was weedy Eleusine indica, and the concentration of the herbicide and the results are recorded in the table 4 below:
The percentage efficacy was calculated after 7, 14, 21, 28 and 35 days of application (DAA). The target weed was weedy Eleusine indica, and the concentration of the herbicide and the results are recorded in the table 5 below:
The percentage efficacy was calculated after 3, 7, 28, 35 days of application (DAA). The target weed was weedy Eleusine indica, and the concentration of the herbicide and the results are recorded in the table 6 below: […]

[1] = Table 4, 3 DAA, g ai/h: L-glufosinate 150, 2,4-D 204
[2] = Table 4, 7 DAA, g ai/h: L-glufosinate 150, 2,4-D 204
[3] = Table 4, 14 DAA, g ai/h: L-glufosinate 150, 2,4-D 204
[4] = Table 4, 21 DAA, g ai/h: L-glufosinate 150, 2,4-D 204
[5] = Table 4, 28 DAA, g ai/h: L-glufosinate 150, 2,4-D 204
[6] = Table 4, 35 DAA, g ai/h: L-glufosinate 150, 2,4-D 204
[7] = 7 DAA, dose a.i. g/h: L-glufosinate 150, oxyfluorfen 107.1, imazethapyr 75, carfentrazone 7.5
[8] = 14 DAA, dose a.i. g/h: L-glufosinate 150, oxyfluorfen 107.1, imazethapyr 75, carfentrazone 7.5
[9] = 21 DAA, dose a.i. g/h: L-glufosinate 150, oxyfluorfen 107.1, imazethapyr 75, carfentrazone 7.5
[10] = 28 DAA, dose a.i. g/h: L-glufosinate 150, oxyfluorfen 107.1, imazethapyr 75, carfentrazone 7.5
[11] = 35 DAA, dose a.i. g/h: L-glufosinate 150, oxyfluorfen 107.1, imazethapyr 75, carfentrazone 7.5
[12] = Table 6, 3 DAA, g ai/h: L-glufosinate 150, clethodim 45
[13] = Table 6, 7 DAA, g ai/h: L-glufosinate 150, clethodim 45
[14] = Table 6, 28 DAA, g ai/h: L-glufosinate 150, clethodim 45
[15] = Table 6, 35 DAA, g ai/h: L-glufosinate 150, clethodim 45
[16] = Table 3, 3 DAA, g ai/h: L-glufosinate 150, flumioxazin 30
[17] = Table 3, 7 DAA, g ai/h: L-glufosinate 150, flumioxazin 30
[18] = Table 3, 14 DAA, g ai/h: L-glufosinate 150, flumioxazin 30
[19] = Table 3, 21 DAA, g ai/h: L-glufosinate 150, flumioxazin 30
[20] = Table 3, 28 DAA, g ai/h: L-glufosinate 150, flumioxazin 30
[21] = Table 3, 35 DAA, g ai/h: L-glufosinate 150, flumioxazin 30
[22] = Table 2, 7 DAA, g ai/h: L-glufosinate 150, glyphosate 379
[23] = Table 2, 35 DAA, g ai/h: L-glufosinate 150, glyphosate 379
[24] = Table 7, 7 DAA, g ai/h: L-glufosinate 150, haloxyfop 50
[25] = Table 5, 7 DAA, g ai/h: L-glufosinate 150, triclopyr 288
[26] = Table 5, 14 DAA, g ai/h: L-glufosinate 150, triclopyr 288
[27] = Table 5, 21 DAA, g ai/h: L-glufosinate 150, triclopyr 288
[28] = Table 5, 28 DAA, g ai/h: L-glufosinate 150, triclopyr 288
[29] = Table 5, 35 DAA, g ai/h: L-glufosinate 150, triclopyr 288

O=C(O)COc1ccc(Cl)cc1Cl [2,4-D]
% control [1]: 5%
% control [2]: 4%
% control [3]: 6.7%
% control [4]: 5%
% control [5]: 5%
% control [6]: 0%

Cc1nn(-c2cc(CC(Cl)C(=O)O)c(Cl)cc2F)c(=O)n1C(F)F (stereo not shown) [Carfentrazone, carfentrazone]
Control % [7]: 14%
Control % (7 DAA, dose a.i. g/h: carfentrazone 9.0, alone or with L-glufosinate 150): 16.7%
Control % [8]: 12.3%
Control % (14 DAA, dose a.i. g/h: carfentrazone 9.0, alone or with L-glufosinate 150): 16.7%
Control % [9]: 11%
Control % (21 DAA, dose a.i. g/h: carfentrazone 9.0, alone or with L-glufosinate 150): 14%
Control % [10]: 7.7%
Control % (28 DAA, dose a.i. g/h: carfentrazone 9.0, alone or with L-glufosinate 150): 12.3%
Control % [11]: 0%
Control % (35 DAA, dose a.i. g/h: carfentrazone 9.0, alone or with L-glufosinate 150): 6.7%

CCSC(C)CC1CC(=O)C(/C(CC)=N/OC/C=C/Cl)=C(O)C1 (stereo not shown) [Clethodim, clethodim]
% control [12]: 6.7%
% control [13]: 15%
% control [14]: 81.7%
% control [15]: 84.3%

C#CCN1C(=O)COc2cc(F)c(N3C(=O)C4=C(CCCC4)C3=O)cc21 [Flumioxazin, flumioxazin]
% control [16]: 5.0%
% control [17]: 28.3%
% control [18]: 21.7%
% control [19]: 10%
% control [20]: 5%
% control [21]: 0%

O=C(O)CNCP(=O)(O)O [Glyphosate, glyphosate]
% control [22]: 28.3%
% control [23]: 81.7%

CC(Oc1ccc(Oc2ncc(C(F)(F)F)cc2Cl)cc1)C(=O)O (stereo not shown) [Haloxyfop, haloxyfop]
% control [24]: 25%

CCc1cnc(C2=NC(C)(C(C)C)C(=O)N2)c(C(=O)O)c1 (stereo not shown) [Imazethapyr, imazethapyr]
Control % [7]: 8.3%
Control % [8]: 12%
Control % [9]: 12.7%
Control % [10]: 12.7%
Control % [11]: 10%

CP(=O)(O)CC[C@H](N)C(=O)O [L-glufosinate]
Control % [7]: 43.3%
Control % [8]: 41.3%
Control % [9]: 37.3%
Control % [10]: 28.3%
Control % [11]: 25.3%
% control [22]: 50.7%
% control [23]: 54.3%
% control [16]: 12.3%
% control [17]: 50.7%
% control [18]: 65.0%
% control [19]: 64.3%
% control [20]: 59.3%
% control [21]: 54.3%
% control [1]: 12.3%
% control [2]: 50.7%
% control [3]: 65.0%
% control [4]: 64.3%
% control [5]: 59.3%
% control [6]: 54.3%
% control [25]: 50.7%
% control [26]: 65.0%
% control [27]: 64.3%
% control [28]: 59.3%
% control [29]: 54.3%
% control [12]: 12.3%
% control [13]: 50.7%
% control [14]: 59.3%
% control [15]: 54.3%
% control [24]: 50.7%

CCOc1cc(Oc2ccc(C(F)(F)F)cc2Cl)ccc1[N+](=O)[O-] [Oxyfluorfen, oxyfluorfen]
Control % [7]: 44%
Control % [8]: 40%
Control % [9]: 37%
Control % [10]: 28.3%
Control % [11]: 23.3%

O=C(O)COc1nc(Cl)c(Cl)cc1Cl [Triclopyr, triclopyr]
% control [25]: 8%
% control [26]: 13.3%
% control [27]: 6.7%
% control [28]: 6.7%
% control [29]: 6.7%
